The source made the active and inactive calls. The calls are words filed in the database; no cut-off is given here.
Experiments:
[1] = Chemical stability of the compound in pH 7.4 aqueous solution assessed as degradation by measuring residual rate incubated for 24 hrs at 65 degC by HPLC analysis; type: physicochemical; conditions: read-out: Activity
[2] = molecular target: Macrophage metalloelastase (Homo sapiens, UniProt P39900); assay: Inhibition of recombinant human MMP12 assessed as enzyme activity by measuring fluorescence using fluorogenic peptide substrate
Macrophage metalloelastase, sequence (P39900 whole entry): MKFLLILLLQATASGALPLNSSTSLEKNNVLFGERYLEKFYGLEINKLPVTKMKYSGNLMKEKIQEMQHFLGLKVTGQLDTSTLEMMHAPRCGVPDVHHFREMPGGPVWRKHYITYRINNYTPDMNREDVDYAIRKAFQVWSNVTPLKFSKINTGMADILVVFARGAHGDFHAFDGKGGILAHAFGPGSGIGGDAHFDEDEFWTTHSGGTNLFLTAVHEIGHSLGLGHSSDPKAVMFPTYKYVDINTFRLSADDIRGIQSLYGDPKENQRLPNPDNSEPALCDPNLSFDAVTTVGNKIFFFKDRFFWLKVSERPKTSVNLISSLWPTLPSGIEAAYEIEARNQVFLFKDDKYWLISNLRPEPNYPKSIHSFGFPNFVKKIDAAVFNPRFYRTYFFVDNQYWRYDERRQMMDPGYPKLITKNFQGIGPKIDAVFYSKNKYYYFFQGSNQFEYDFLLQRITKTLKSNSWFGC

Collagenase 3 = Collagenase 3 (Homo sapiens, UniProt P45452); assay: Inhibition of recombinant human MMP13 assessed as enzyme activity by measuring fluorescence using fluorogenic peptide substrate
[3] = molecular target: Matrix metalloproteinase-14 (Homo sapiens, UniProt P50281); assay: Inhibition of recombinant human MMP14 assessed as enzyme activity by measuring fluorescence using fluorogenic peptide substrate
[4] = Chemical stability of the compound in pH 4 aqueous solution assessed as degradation by measuring residual rate incubated measured after 2 weeks at 65 degC by HPLC analysis; type: physicochemical; conditions: read-out: Stability
CYP2B6 [5] = molecular target: T1, CYP2B6 (Homo sapiens, UniProt P20813); assay: Inhibition of CYP2B6 in human liver microsomes at 10 uM by LC-MS/MS analysis relative to control; type: ADME, Microsome
T1 sequence (P20813 whole entry): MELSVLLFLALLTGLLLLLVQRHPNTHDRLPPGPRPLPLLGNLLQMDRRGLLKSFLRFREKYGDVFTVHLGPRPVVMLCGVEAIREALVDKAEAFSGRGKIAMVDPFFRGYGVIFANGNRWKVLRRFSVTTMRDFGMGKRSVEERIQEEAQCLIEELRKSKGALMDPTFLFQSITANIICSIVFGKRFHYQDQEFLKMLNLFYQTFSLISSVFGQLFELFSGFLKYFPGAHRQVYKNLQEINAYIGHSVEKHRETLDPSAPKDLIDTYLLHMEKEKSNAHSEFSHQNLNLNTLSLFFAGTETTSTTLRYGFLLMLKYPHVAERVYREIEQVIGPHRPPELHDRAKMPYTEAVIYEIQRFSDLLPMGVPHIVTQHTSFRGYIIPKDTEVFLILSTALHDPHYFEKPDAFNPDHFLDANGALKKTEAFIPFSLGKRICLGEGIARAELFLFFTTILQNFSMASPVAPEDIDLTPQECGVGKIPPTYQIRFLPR

CYP2C8 = molecular target: T2, CYP2C8 (Homo sapiens, UniProt P10632); assay: Inhibition of CYP2C8 in human liver microsomes at 10 uM by LC-MS/MS analysis relative to control; type: ADME, Microsome
T2 sequence (P10632 whole entry): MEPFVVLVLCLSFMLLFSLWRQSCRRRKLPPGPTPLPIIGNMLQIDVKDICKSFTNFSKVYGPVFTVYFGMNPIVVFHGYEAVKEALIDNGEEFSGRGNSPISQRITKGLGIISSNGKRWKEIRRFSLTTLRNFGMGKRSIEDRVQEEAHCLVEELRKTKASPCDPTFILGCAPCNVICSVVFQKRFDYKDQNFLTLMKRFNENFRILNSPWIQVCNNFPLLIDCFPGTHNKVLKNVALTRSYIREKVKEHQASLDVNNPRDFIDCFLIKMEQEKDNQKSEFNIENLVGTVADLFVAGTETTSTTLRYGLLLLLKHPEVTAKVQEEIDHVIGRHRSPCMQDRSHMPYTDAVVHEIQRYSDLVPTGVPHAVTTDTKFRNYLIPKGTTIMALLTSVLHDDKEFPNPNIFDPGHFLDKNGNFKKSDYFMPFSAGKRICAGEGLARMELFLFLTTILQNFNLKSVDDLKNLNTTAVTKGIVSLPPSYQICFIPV

CYP2C9 [6] = molecular target: T3, CYP2C9 (Homo sapiens, UniProt P11712); assay: Inhibition of CYP2C9 in human liver microsomes at 10 uM by LC-MS/MS analysis relative to control; type: ADME, Microsome
T3 sequence (P11712 whole entry): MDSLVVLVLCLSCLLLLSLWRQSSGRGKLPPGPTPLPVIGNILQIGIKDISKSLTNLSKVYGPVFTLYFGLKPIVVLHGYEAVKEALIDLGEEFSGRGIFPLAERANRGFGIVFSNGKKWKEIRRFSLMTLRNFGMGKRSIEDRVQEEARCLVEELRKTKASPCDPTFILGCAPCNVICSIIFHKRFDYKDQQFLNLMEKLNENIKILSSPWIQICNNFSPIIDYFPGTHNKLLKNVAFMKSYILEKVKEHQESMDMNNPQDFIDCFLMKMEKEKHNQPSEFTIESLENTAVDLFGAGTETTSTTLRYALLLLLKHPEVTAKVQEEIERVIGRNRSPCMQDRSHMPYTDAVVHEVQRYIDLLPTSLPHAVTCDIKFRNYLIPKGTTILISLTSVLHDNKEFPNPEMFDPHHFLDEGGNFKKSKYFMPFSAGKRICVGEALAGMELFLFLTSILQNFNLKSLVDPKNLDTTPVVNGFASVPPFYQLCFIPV

CYP2C19 [7] = molecular target: T4, CYP2C19 (Homo sapiens, UniProt P33261); assay: Inhibition of CYP2C19 in human liver microsomes at 10 uM by LC-MS/MS analysis relative to control; type: ADME, Microsome
T4 sequence (P33261 whole entry): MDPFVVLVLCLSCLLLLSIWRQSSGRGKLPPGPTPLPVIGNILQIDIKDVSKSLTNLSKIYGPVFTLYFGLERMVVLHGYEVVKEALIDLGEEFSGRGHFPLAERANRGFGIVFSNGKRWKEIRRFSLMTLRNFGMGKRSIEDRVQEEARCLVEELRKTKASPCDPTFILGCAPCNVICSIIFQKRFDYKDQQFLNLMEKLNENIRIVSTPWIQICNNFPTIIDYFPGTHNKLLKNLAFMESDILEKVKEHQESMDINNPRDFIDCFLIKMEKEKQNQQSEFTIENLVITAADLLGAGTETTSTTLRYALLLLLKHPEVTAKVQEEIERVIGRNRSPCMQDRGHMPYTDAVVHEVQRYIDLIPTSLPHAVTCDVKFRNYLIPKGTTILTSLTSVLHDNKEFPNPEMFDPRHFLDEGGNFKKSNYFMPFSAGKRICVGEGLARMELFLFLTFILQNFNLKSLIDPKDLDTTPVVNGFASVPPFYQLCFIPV

CYP2D6 = CYP2D6 (Homo sapiens, UniProt P10635); assay: Inhibition of CYP2D6 in human liver microsomes at 10 uM by LC-MS/MS analysis relative to control; type: ADME, Microsome
CYP2D6, sequence (P10635 whole entry): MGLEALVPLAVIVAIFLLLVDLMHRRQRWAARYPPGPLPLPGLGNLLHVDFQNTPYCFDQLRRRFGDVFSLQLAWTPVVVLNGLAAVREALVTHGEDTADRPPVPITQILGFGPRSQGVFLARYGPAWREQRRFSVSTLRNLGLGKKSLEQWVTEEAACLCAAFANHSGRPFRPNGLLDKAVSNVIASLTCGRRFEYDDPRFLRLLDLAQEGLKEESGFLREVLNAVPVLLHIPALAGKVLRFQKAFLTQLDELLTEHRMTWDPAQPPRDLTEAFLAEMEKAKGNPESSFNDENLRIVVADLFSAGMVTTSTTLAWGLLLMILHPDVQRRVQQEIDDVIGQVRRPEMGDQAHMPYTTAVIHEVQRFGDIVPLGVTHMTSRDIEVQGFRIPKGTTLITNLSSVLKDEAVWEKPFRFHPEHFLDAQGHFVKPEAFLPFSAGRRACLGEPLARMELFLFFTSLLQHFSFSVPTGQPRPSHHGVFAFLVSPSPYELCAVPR

CYP2B6 [8] = molecular target: T1, CYP2B6; assay: Time dependent inhibition of CYP2B6 in human liver microsomes at 10 uM by LC-MS/MS analysis relative to control; type: ADME, Microsome; conditions: read-out: TDI
CYP2C9 [9] = molecular target: T3, CYP2C9; assay: Time dependent inhibition of CYP2C9 in human liver microsomes at 10 uM by LC-MS/MS analysis relative to control; type: ADME, Microsome; conditions: read-out: TDI
CYP2C19 [10] = molecular target: T4, CYP2C19; assay: Time dependent inhibition of CYP2C19 in human liver microsomes at 10 uM by LC-MS/MS analysis relative to control; type: ADME, Microsome; conditions: read-out: TDI
CYP3A [11] = molecular target: T5, CYP3A (Homo sapiens, UniProt P08684+P20815+P24462+Q9HB55); assay: Time dependent inhibition of CYP3A in human liver microsomes using midazolam as substrate at 10 uM by LC-MS/MS analysis relative to control; type: ADME, Microsome; conditions: probe midazolam, read-out: TDI
CYP3A [12] = molecular target: T5, CYP3A; assay: Time dependent inhibition of CYP3A in human liver microsomes using testosterone as substrate at 10 uM by LC-MS/MS analysis relative to control; type: ADME, Microsome; conditions: probe testosterone, read-out: TDI
[13] = Fraction unbound in human; type: ADME
Mus musculus = assay: Antifibrotic effect in UUO surgery-induced renal fibrosis C57BL/6J mouse model assessed as reduction in renal collagen at 0.3 to 3 mg/kg/day, sc administered with mini osmotic pump measured after 7 days; type: functional, organism-based; conditions: dose 0.3-3 mg/kg/day, time 7.0 day
[14] = Plasma unbound drug concentration at steady state in UUO surgery-induced renal fibrosis C57BL/6J mouse model at 0.1 mg/kg/day, sc administered with mini osmotic pump measured after 3 days; type: ADME, organism-based; conditions: in vivo, 72 h, time 3 day

remaining at 24 h [1]: 97.9% | IC50 [2]: 730 nM | IC50 (Collagenase 3): > 10 µM | IC50 [3]: 1700 nM | remaining at 336 h [4]: 98.2% | inhibition at 10 µM (CYP2B6 [5]): -6.6% | inhibition at 10 µM (CYP2C8): 14.4% | inhibition at 10 µM (CYP2C9 [6]): 0.5% | inhibition at 10 µM (CYP2C19 [7]): -4.3% | inhibition at 10 µM (CYP2D6): 6.4% | inhibition at 10 µM (CYP2B6 [8]): -4.8% | inhibition at 10 µM (CYP2C9 [9]): -11.5% | inhibition at 10 µM (CYP2C19 [10]): 4.8% | inhibition at 10 µM (CYP3A [11]): -5.2% | inhibition at 10 µM (CYP3A [12]): -13.9% | fraction unbound [13]: 0.135 | Cp(f) [14]: 1.32 nM
Compound: CC(C)(C)[C@H](NC(=O)[C@H](Cc1ccncc1)NC(=O)CNC(=O)CC[C@H](NS(=O)(=O)c1ccc(Cl)c(C(F)(F)F)c1)C(=O)O)C(=O)Nc1ccc(C(=O)N2CCC(C(=O)N[C@H](CCCCN)C(=O)N3CC[C@H](N)C3)CC2)cc1
Activity (Mus musculus): Active
